Where a name gives a salt, the structure may show the parent alone. Read-outs that look alike come from different tables or passages of the source.
Experiments:
[1] = target: T1, LTA4 hydrolase (Homo sapiens, UniProt P09960); details: literature; cited from earlier work
T1 sequence (P09960 1-611): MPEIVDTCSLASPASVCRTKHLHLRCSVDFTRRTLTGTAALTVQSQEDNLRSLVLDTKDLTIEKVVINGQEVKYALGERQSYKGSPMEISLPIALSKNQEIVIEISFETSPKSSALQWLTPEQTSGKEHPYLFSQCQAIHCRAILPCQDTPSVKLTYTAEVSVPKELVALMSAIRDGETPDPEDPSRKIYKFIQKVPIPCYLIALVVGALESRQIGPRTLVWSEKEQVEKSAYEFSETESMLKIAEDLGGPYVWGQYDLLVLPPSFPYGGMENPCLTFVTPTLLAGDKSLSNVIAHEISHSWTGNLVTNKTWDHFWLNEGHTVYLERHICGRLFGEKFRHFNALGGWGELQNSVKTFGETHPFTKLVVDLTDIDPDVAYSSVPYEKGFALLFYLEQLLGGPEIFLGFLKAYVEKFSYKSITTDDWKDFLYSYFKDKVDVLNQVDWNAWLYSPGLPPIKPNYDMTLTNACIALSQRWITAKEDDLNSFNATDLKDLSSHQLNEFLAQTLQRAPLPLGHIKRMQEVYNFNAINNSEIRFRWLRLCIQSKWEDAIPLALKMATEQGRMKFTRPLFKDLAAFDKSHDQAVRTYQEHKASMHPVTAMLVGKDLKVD

[2] = target: T2, LTA4 hydrolase (epoxide hydrolase activity) (Homo sapiens, UniProt P09960); assay: Inhibition of epoxide hydrolase activity of LTA4 hydrolase, LTA4 as substrate; format: biochemical
T2 construct: obtained from human leukocytes and was purified to apparent homogeneity; from tissue; host or cells: human leukocytes (purified to apparent homogeneity)
T2 sequence (P09960 1-611): T1 sequence (P09960 1-611)

[3] = target: T1, LTA4 hydrolase; assay: Inhibition of LTA4 hydrolase, amidase (aminopeptidase) activity, L-alanyl p-nitroanilide as substrate; format: biochemical; design: LTA4 hydrolase purified from human leukocytes; from tissue; host or cells: human leukocytes (purified enzyme); details: for IC50: thiols with 5 mM DTT
[4] = tested on: Leukotriene B4 (LTB4); assay: Inhibition of leukotriene B4 (LTB4) in calcium ionophore A-23187-stimulated human blood; format: cell-based; details: Homo sapiens
[5] = tested on: Thromboxane B2 (TXB2); assay: Inhibition of thromboxane B2 (TXB2) in calcium ionophore A-23187-stimulated human blood; format: cell-based
[6] = tested on: LTC4 Synthase; assay: Inhibition of LTC4 synthase activity in human platelets; format: cell-based
Excerpt: (§1) Compounds 24 and 27 were also studied for their abilities to inhibit 5- and 15-lipoxygenase using calcium ionophore A-23187-stimulated polymorphonuclear leukocytes (PMNL) in the presence of exogenous arachidonic acid. […] LTC4 Synthase activity in human platelets was also not inhibited.

[7] = tested on: 15-lipoxygenase; assay: Inhibition of 15-lipoxygenase in A-23187-stimulated PMNL with exogenous arachidonic acid; format: cell-based
Excerpt: as §1

[8] = target: cytosolic leucine aminopeptidase; assay: Inhibition of cytosolic leucine aminopeptidase; format: biochemical
[9] = target: T3, aminopeptidase M (Sus scrofa, UniProt P15145); assay: Inhibition of aminopeptidase M; format: biochemical
T3 sequence (P15145 1-963): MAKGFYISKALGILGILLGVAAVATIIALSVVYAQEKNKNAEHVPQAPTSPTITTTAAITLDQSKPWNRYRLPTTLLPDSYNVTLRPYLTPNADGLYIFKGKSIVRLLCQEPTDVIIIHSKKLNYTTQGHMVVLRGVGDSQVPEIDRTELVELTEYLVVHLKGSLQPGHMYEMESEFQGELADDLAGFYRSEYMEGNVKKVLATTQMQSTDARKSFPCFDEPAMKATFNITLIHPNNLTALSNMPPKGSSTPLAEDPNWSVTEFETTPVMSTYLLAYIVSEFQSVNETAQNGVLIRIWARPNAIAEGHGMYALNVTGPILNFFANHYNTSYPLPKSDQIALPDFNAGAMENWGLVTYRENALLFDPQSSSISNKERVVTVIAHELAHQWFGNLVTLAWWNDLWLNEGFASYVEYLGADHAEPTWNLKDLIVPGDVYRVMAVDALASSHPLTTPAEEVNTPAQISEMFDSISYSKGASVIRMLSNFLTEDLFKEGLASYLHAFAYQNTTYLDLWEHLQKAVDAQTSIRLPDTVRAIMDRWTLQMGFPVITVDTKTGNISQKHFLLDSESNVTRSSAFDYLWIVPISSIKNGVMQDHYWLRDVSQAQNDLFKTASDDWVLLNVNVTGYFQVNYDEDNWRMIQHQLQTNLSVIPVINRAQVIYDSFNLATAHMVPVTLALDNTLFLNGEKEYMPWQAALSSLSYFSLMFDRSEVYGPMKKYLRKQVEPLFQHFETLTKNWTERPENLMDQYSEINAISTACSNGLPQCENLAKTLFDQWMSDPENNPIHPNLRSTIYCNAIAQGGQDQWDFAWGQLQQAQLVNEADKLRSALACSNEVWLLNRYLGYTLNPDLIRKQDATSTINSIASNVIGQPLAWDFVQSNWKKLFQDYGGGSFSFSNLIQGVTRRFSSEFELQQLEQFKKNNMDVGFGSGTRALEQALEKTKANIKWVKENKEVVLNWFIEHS

[10] = tested on: LTB4 Formation in intact PMNL; assay: LTB4 formation in calcium ionophore A-23187-stimulated intact PMNL; format: cell-based; details: for IC50: Homo sapiens, PMNL, calcium ionophore A-23187-stimulated, dose dependent
[11] = target: T1, LTA4 hydrolase; assay: Kinetic parameters of LTA4 hydrolase-catalyzed hydrolysis of LTA4 and amide substrates; format: biochemical
Protocol: Several amino acid amides were assayed as substrates for LTA4 hydrolase. Yuan et al., Bioorg. & Med. Chem. Lett., 1:551 (1991).
^a Determined in 50 mM TrisCl, pH 7.6, in the presence of 0.1 M NaCl, […]

[12] = target: T1, LTA4 hydrolase; details: LTA4 as substrate, Radmark et al., cited from earlier work
[13] = L-alanyl p-nitroanilide 1.5 mM, pH 8.0
[14] = Table 5, read-out: IC50 Epoxide Hydrolase
[15] = Table 4, read-out: % Inhibition LTB4
[16] = Table 4, 10 μM, read-out: % Inhibition TXB2
[17] = read-out: % Inhibition LTB4, Table 3
[18] = read-out: % Inhibition LTB4, Table 4
[19] = read-out: % Inhibition TXB2, Table 3, 1 μM
[20] = read-out: % Inhibition TXB2, Table 3, 3 μM
[21] = read-out: % Inhibition TXB2, Table 3, 10 μM
[22] = read-out: % Inhibition TXB2, Table 4, 10 μM
[23] = Table 3, read-out: % Inhibition LTB4
[24] = Table 1, 50 mM TrisCl, pH 7.6, 0.1 M NaCl

In the case of `CC(C)C[C@H](NC(=O)[C@@H](O)[C@H](N)Cc1ccccc1)C(=O)O` [Bestatin], the “inhibition of LTA4 hydrolase, type of inhibition (in words)” value (from here on “inhibition … of inhibition (in words)”) [1] is listed as “reversible inhibitors”.

In the case of `C[C@H](CS)C(=O)N1CCC[C@H]1C(=O)O` [Captopril, reference compound], the “inhibition … of inhibition (in words)” value [1] is given as “reversible inhibitors” and the IC50 [2] is given as 240 µM.

In the case of `N[C@@H](Cc1ccccc1)[C@H](O)C(=O)OCc1ccccc1` [Compound 20], the “inhibition of LTA4 hydrolase (in words)” value [3] is reported as “bound more tightly than the amide”, the IC50 [3, 13] is reported as 0.8 µM and the IC50 [2, 14] is reported as 100 µM.

With `COC(=O)C(=O)[C@@H](N)Cc1ccccc1` [Compound 21] the “inhibition of LTA4 hydrolase (in words)” value [3] was “comparable with Compound 2”, the IC50 [3, 13] was 80 µM and the inhibition at 10 µM [4, 15] was 8%. It also gave an inhibition at 10 µM [5, 16] of 0%.

In the case of `N[C@@H](Cc1ccc(OCc2ccccc2)cc1)[C@H](O)C(=O)OCc1ccccc1` [Compound 24], the “inhibition of LTC4 synthase activity (in words)” value [6] is reported as “not inhibited”, the inhibition at 1 µM [4, 17] is reported as 7% and the inhibition at 3 µM [4, 17] is reported as 44%. The inhibition at 10 µM [4, 17] was 39%, the inhibition at 10 µM [4, 18] was 18% and the “inhibition of 15-lipoxygenase activity (in words)” value [7] was “No inhibition”. It also gave an IC50 [8] of 80 µM, an IC50 [9] greater than 100 µM and an inhibition at 1 µM [5, 19] of 0%. For the same molecule, the inhibition at 3 µM [5, 20] was 17%, the inhibition at 10 µM [5, 21] was 4% and the inhibition at 10 µM [5, 22] was 0%. For the same molecule, the IC50 [10] was 0.1 to 0.2 µM and the “activity in intact PMNL compared with isolated enzyme (in words)” value ([10]; intact PMNL versus isolated enzyme) was “unexpectedly much more active in this assay using intact PMNL than in assays with the isolated enzyme”.

For `COC(=O)C(=O)[C@@H](N)Cc1ccc(OCc2ccccc2)cc1` [Compound 25], the “tightness of binding to the enzyme relative to Compound 23” value ([3]; Compound 25 versus Compound 23) was 30 times, the IC50 [3, 13] was 0.6 µM and the “selectivity for LTA4 binding (in words)” value ([3]; versus other aminopeptidases) was “selective for LTA4 binding”. The inhibition at 1 µM [4, 23] was 29%, the inhibition at 3 µM [4, 23] was 59% and the inhibition at 10 µM [4, 23] was 39%. The IC50 [2, 14] was 100 µM, the IC50 [9] was 80 µM and the inhibition at 1 µM ([5]; Table 3, 1 μM, read-out: % Inhibition TXB2) was 25%. The inhibition at 3 µM ([5]; Table 3, 3 μM, read-out: % Inhibition TXB2) was 20% and the inhibition at 10 µM ([5]; Table 3, 10 μM, read-out: % Inhibition TXB2) was 41%.

`N[C@@H](Cc1ccc(OCc2ccccc2)cc1)C(=O)C(=O)OCc1ccccc1` [Compound 26] gave an inhibition at 1 µM [4, 17] of 15%, an inhibition at 3 µM [4, 17] of 17% and an inhibition at 10 µM [4, 17] of 24%. It also gave an IC50 [8] greater than 100 µM, an inhibition at 1 µM [5, 19] of 8% and an inhibition at 3 µM [5, 20] of 7%. For the same molecule, the inhibition at 10 µM [5, 21] was 28%.

With `Cl.N[C@H](CS)Cc1ccc(OCc2ccccc2)cc1` [Compound 27, (2S)-3-[4-(benzyloxy)phenyl]-2-amino-propanethiol HCl] the “inhibition of LTC4 synthase activity (in words)” value [6] was “not inhibited”, the inhibition at 10 µM [4, 18] was 100% and the IC50 ([4]; read-out: IC50 in this assay (human blood)) was roughly 1.1 µM. The “inhibition of 15-lipoxygenase activity (in words)” value [7] was “No inhibition”, the IC50 [8] was greater than 50 µM and the inhibition at 10 µM [5, 22] was 100%. It also gave an IC50 [10] of 0.1 to 0.2 µM.

With `N[C@@H](Cc1ccc(OCc2ccccc2)cc1)C(=O)c1cccc(C(=O)O)c1` [Compound 28] the IC50 [3, 13] was 3 µM, the inhibition at 10 µM [4, 15] was 16% and the inhibition at 10 µM [5, 16] was 0%.

Work on `N[C@@H](Cc1ccc(OCc2ccccc2)cc1)C(=O)c1ccc(C(F)(F)F)cc1` [Compound 29] yielded an IC50 [3, 13] of 10 µM, an IC50 [2, 14] greater than 100 µM and an inhibition at 10 µM [5, 16] of 0%.

`N[C@@H](Cc1ccccc1)C(=O)Cc1ccccc1` [Compound 30] showed a Ki ([3]; L-alanyl p-nitroanilide 1.5 mM, pH 8.0, Dixon plot) of 14 µM, an inhibition at 10 µM [4, 15] of 15% and an IC50 [2, 14] greater than 100 µM. It also gave an inhibition at 10 µM [5, 16] of 6%.

Molecule `N[C@@H](Cc1ccccc1)C(=O)CCCC(=O)O` [Compound 45, (6S) -5-Oxo-6-amino-7-phenyl-heptanoic acid HCl] has an IC50 [3, 13] of 20 µM, an inhibition at 10 µM [4, 15] of 11% and an inhibition at 10 µM [5, 16] of 12%.

In the case of `C[C@@H](N)C(=O)Nc1ccc([N+](=O)[O-])cc1` [D-Ala p-nitroanilide, D-Alanine p-nitroanilide], the “acceptance as substrate for LTA4 hydrolase (in words)” value [11] is reported as “not acceptable” and the Vmax [11, 24] is reported as 0 nmol/min/mg.

In the case of `C[C@H](N)C(=O)Nc1ccc([N+](=O)[O-])cc1` [L-Ala p-nitroanilide, L-alanine p-nitroanilide], the “acceptance as substrate for LTA4 hydrolase (in words)” value [11] is reported as “the best”.

For `CCCCCCCC\C=C/C=C/C=C/[C@@H]1O[C@H]1CCCC(=O)O` [LTA3], the “inhibition … of inhibition (in words)” value [1] is given as “irreversibly inhibited”.

For `CCCCC/C=C\C\C=C/C=C/C=C/[C@@H]1O[C@H]1CCCC(=O)O` [LTA4, 5(S)-5,6-oxido-7,9-trans-11,14-cis-eicosatetraenoic acid], the “kcat /Km” value [11, 24] is listed as 9.0 × 10^4 M^- x^-1, the “inhibition … of inhibition (in words)” value [1] is listed as “irreversibly inhibited” and the “Vmax reported for native LTA4 hydrolase” value [12] is listed as 1.7 to 3.0 µmol/min/mg. For the same molecule, the Km ([12]; native LTA4 hydrolase, read-out: Km reported for native LTA4 hydrolase) was 7 to 30 µM.

In the case of `CC/C=C\C/C=C\C\C=C/C=C/C=C/[C@@H]1O[C@H]1CCCC(=O)O` [LTA5], the “inhibition … of inhibition (in words)” value [1] is given as “irreversibly inhibited”.

Reference: US5455271A, “Tight-binding inhibitors of leukotriene A4 hydrolase” (The Scripps Research Institute, priority 1993, dated 1995)
